These are literature values, as cited in article PMC12311729, “Probing the Mechanism of L‑DOPA 2,3-Dioxygenase Using Synthetic Derivatives of 3,4-Dihydroxyhydrocinnamic Acid” (ACS Omega, 2025).

The target in data set [1] is L-DOPA 2,3-dioxygenase from S. hygroscopicus jingganensis (ShjDDO) (Streptomyces hygroscopicus, UniProt H2JL11). Also on record: method as in Biochemistry 2021, 60, 32, 2492–2507. Conditions: percentage of L-DOPA; ref Biochemistry 2021, 60, 32, 2492–2507; cited from earlier work.
For data set [2], the target named is L-DOPA 2,3-dioxygenase from S. lincolnensis (LmbB1) (Streptomyces lincolnensis, UniProt Q54354). Set-up: method as in Biochemistry 2021, 60, 32, 2492–2507. The note with it: percentage of L-DOPA; ref Biochemistry 2021, 60, 32, 2492–2507; cited from earlier work.
On the set-up of data set [3]: method as in Biochemistry 2021, 60, 32, 2492–2507. Conditions: ref Biochemistry 2021, 60, 32, 2492–2507, cited from earlier work.
Details of data set [4]: method as in Biochemistry 2021, 60, 32, 2492–2507. Conditions: percentage of L-DOPA; ref Biochemistry 2021, 60, 32, 2492–2507; cited from earlier work.
On the set-up of data set [5]: method as in Biochemistry 2021, 60, 32, 2492–2507. Conditions: percentage of L-DOPA; ref Biochemistry 2021, 60, 32, 2492–2507; cited from earlier work. This is another data set of the same source.

Chain of L-DOPA 2,3-dioxygenase from S. hygroscopicus jingganensis (ShjDDO) (H2JL11 1-162): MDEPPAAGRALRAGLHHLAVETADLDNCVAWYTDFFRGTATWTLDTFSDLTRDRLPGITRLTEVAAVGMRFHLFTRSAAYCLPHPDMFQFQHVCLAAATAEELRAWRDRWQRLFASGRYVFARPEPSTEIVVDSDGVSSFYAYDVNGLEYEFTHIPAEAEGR
Chain of L-DOPA 2,3-dioxygenase from S. lincolnensis (LmbB1) (Q54354 entry or part of it): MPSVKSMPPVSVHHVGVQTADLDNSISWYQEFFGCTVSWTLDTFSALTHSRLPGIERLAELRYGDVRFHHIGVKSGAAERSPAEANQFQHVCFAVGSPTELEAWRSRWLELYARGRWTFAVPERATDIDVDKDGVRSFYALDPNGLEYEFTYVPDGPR

For `N#Cc1cc(O)c(O)cc1CCN` [Compound 6-cyanoDA], the “kSP, O2 (μM^-1 min^-1) at pH 7.5 relative to L-DOPA x 100 for ShjDDO” value in data set [1] is listed as 3%. Besides, the “kSP, O2 (μM^-1 min^-1) at pH 7.5 relative to L-DOPA x 100 for LmbB1” value in data set [2] is recorded as 16%. Moreover, in data set [3] (percentage of L-DOPA), the “Catecholic pKa value relative to L-DOPA x 100” value is given as 80%. Further, in data set [3] (similarly 6-substituted dopamine), the “pK a value of dopamine counterpart” value is 7.03 ± 0.06. Also, the “E1/2 (mV) at pH 7.4 relative to L-DOPA x 100” value in data set [4] is 129%. Further, the “CSEV (Å^3) relative to L-DOPA x 100” value in data set [5] is 94%.
